Experimental data: patent US9644037B2, “Antibodies that specifically bind ataxia telangiectasia-mutated and RAD3-related kinase phosphorylated at position 1989 and their use” (THE UNITED STATES OF AMERICA, AS REPRESENTED BY THE …, priority 2013, dated 2017)

Legend:
γH2AX = test: Immunoblot of ATR-Chk1 response to Top1 inhibitors with or without VE-821: γH2AX; format: cell-based; settings: for phosphorylation of H2AX (γH2AX): Top1 inhibitor treatment
Procedure: (§1) For these studies, auto-phosphorylation of ATR on threonine 1989, a DNA damage activation site (Nam et al., J Biol Chem 2011; 286(33):28707-14; Liu et al., Molecular cell 2011; 43(2):192-202), was determined, as well as Chk1 phosphorylation on serine 345, which is mediated by ATR. Histone H2AX phosphorylation was also determined on serine 139 (γH2AX), a validated pharmacodynamic biomarker for DNA damage and apoptosis (Bonner et al., Nat Rev Cancer 2008; 8(12):957-67; Kinders et al., Clin Cancer Res 2010; 16(22):5447-57; Solier et al., Mol Cell Biol 2009; 29(1):68-82).
(§2) Briefly, cell lysates were electrophoresed on 4-20% Tris-glycine or 3-8% Tris-acetate polyacrylamide gels, and transferred onto nitrocellulose membranes. Antibodies against GAPDH, ATR and pS345-Chk1 were obtained from Cell Signaling Technologies, γH2AX and pT68-Chk2 from Abcam and Top1 from BD Biosciences. The antibody against pT1989-ATR is disclosed above. After incubation with secondary antibody, signals were detected by enhanced chemiluminescence (Pierce).

pT1989-ATR = test: Immunoblot of ATR-Chk1 response to Top1 inhibitors with or without VE-821: ATR; format: cell-based; settings: for phosphorylation of ATR (threonine 1989): Top1 inhibitor treatment, 0, 4, 8, 18 h after removal
Procedure: as §1, §2

pT68-Chk2 = test: Immunoblot of ATR-Chk1 response to Top1 inhibitors with or without VE-821: Chk2; format: cell-based; settings: for phosphorylation of Chk2 (threonine 68): Top1 inhibitor treatment
Procedure: Briefly, cell lysates were electrophoresed on 4-20% Tris-glycine or 3-8% Tris-acetate polyacrylamide gels, and transferred onto nitrocellulose membranes. Antibodies against GAPDH, ATR and […]-Chk1 were obtained from Cell Signaling Technologies, γH2AX and […]-Chk2 from Abcam and Top1 from BD Biosciences. The antibody against […]-ATR is disclosed above. After incubation with secondary antibody, signals were detected by enhanced chemiluminescence (Pierce).

pS345-Chk1 = test: Immunoblot of ATR-Chk1 response to Top1 inhibitors with or without VE-821: Chk1; format: cell-based; settings: for phosphorylation of Chk1 (serine 345): Top1 inhibitor treatment
Procedure: as §1, §2

phospho-ATR (pT1989) = test: Western blot of phospho-ATR (pT1989) in drug-treated cells; format: cell-based, human
Procedure: Cell growth was monitored 2-3 weeks after fusion. Hybridoma supernatants were screened by standard colorimetric ELISA against BSA-conjugated peptides as described in section C. The screening process consisted of a Primary screen on 40 plates (using bleed 2 of E5571 at 1:100 dilution as a Positive control) clones (44) with O.D. greater than 0.5 were considered putatively positive and were further expanded to 24-well plate. Confirmatory screen was performed and 6 clones were confirmed positive against phospho-specific peptides (Table 4). Additional screening was performed by ELISA using the same assay as for bleed screening (FIG. 5). Western blotting was done on selected clones #7, 27 and 35 for subcloning (FIG. 6). DLD-1 cells and DLD-1 Seckel cells with and without gemcitabine treatment (100 nM for 4 h) were lysed with cell extraction buffer (Invitrogen, catalog # FNN0011). Lysates were run on NUPAGE® NOVEX® 3-8% gels (Invitrogen, catalog # EA0378BOX) and transferred to nitrocellulose membranes (Invitrogen catalog # IB3010-01) using the IBLOT® apparatus from Invitrogen. Blots were blocked with Licor ODYSSEY® blocking buffer (LiCor, catalog #927-40010) and incubated overnight with hybridoma supernatants (1:30). Blots were then washed with PBS-T (0.05% TWEEN®) and incubated with Licor goat anti-rabbit IR-680 antibody for 1 h at room temperature. Blots were then washed with phosphate-buffered saline with 0.05% TWEEN®-20 (PBS-T) and scanned at 700 nm on Licor ODYSSEY® scanner.
Details for lysate preparation and Western blotting are given in Example I, section E. The antibody detected a single band at about 250 kDa consistent with the predicted molecular weight (MW) for ATR. The antibody also detected an increase in phospho-ATR (pT1989) upon gemcitabine (SIGMA) treatment which is known to increase ATR activity (Mol. Pharmacol. (2005), 68, 1636-1644). Finally, an isogenic pair of DLD-1 cells was used.
Cells were treated for 4 hours with either vehicle (DMSO, 0.01%), 150 nM Gemcitabine (Sigma), 1 uM ATR inhibitor VE-821 or combination of drugs. The antibody detected a single band at about 250 kDa consistent with the predicted MW for ATR. The antibody also detected an increase in phospho-ATR (pT1989) upon Gemcitabine treatment, which is known to increase ATR activity (Molecular Pharmacology (2005) 68, 1636-1644). […] Lysates were prepared in buffer as follows: 0.94 ml RIPA buffer, 40 μl Protease Inhibitor Cocktail (25× stock, Roche Cat#11697498001), 10 μl Phosphatase Inhibitor (Roche Cat#04906845001) and 10 μl PMSF (Sigma cat#93482). Lysates were sonicated prior to use. Lysates were run on 3-8% Tris-Acetate gels from NOVEX® (Invitrogen, Cat# EA0378BOX) and transferred to nitrocellulose membranes using the IBLOT® transfer apparatus, program setting P3, 20V, 13 min. Blots were blocked with Licor ODYSSEY® blocking buffer and incubated overnight with Clone 7 hybridoma supernatant (1:30). B lots were then washed with PBS-T (0.05% Tween) and incubated with Licor goat anti-rabbit IR-680 antibody for 1 h at room temperature. […]
For these studies, DLD-1 parental and DLD-1 Seckel (Horizon) cells were treated with gemcitabine for 4 hours. Clone 7A7 detected ATR in the parental DLD-1 cell lysate by Western blotting and detects an increase in pT1989-ATR with gemcitabine treatment as expected. In contrast, the level of pT-1989 detected by clone 7A7 was much lower in the DLD-1 Seckel cells which have suppressed ATR expression.

[1] = test system: ATR-pT1989 foci in A2780 xenografts; test: pATR T1989 immunofluorescence assay in A2780 xenografts; format: in vivo, mice; settings: 1.2 or 6.0 mg/kg intraperitoneally; 4, 7 and 24 hours; dose and time dependent
Procedure: In vivo studies were performed. A2780 xenografts were evaluated in mice treated with 1.2 mg/kg cisplatin or 6.0 mg/kg cisplatin for 4, 7 and 24 hours. […] The following methods were used in these studies:
Xenograft Samples and In Vivo Quantitation: Athymic nu/nu mice were implanted with A2780 cells as previously described (Kinders et al., Clin Cancer Res 2010:16(22):5447-57). Xenograft quadrants were collected and flash frozen from mice following exposure to vehicle (0.9% saline) or various doses (1.2, 6.0 mg/kg) of cisplatin administered intraperitoneally. The samples were fixed in neutral-buffered formalin and paraffin-embedded as previously described (Kinders et al., Clin Cancer Res 2010; 16(22):5447-57). Animal care was provided in accordance with the procedures outlined in the “Guide for Care and Use of Laboratory Animals” (National Research Council; 1996; National Academy Press; Washington, D.C.), and all studies were conducted under an approved Animal Care and Use Committee protocol. […]
Quantitative Marker Analysis: The DEFINIENS TISSUE STUDIO® (Version 2.0.3; Build 2057) software program was used for analysis of foci count/nucleus. For the analysis, fields were scored first for the number of nuclei and then individual counts of the number of foci count/per nucleus were performed. […]

[2] = test system: ATR phosphorylation at pT1989; test: ATR-pT1989 IFA on FFPE pellets of drug-treated cells; format: cell-based, human
Procedure: Formalin fixed paraffin embedded (FFPE) pellets were generated using cells expressing WT ATR (HT29, DLD-1 Parental) or mutated ATR (DLD-1 Seckel (Horizon)), with and without gemcitabine (SIGMA) treatment to induce ATR phosphorylation at pT1989 (Mol. Pharmacol. 2005, 68, 1636-1644). Cells were harvested by trypsinization, transferred into a sterile 50 ml conical centrifuge tubes with media containing 10% serum and pelleted at 1000×g for 5 minutes. Medium was replaced with fresh serum containing medium and centrifuged again at 1000×g, 5 minutes. All but 1 ml (approximately) of medium was removed and the pellet was re-suspended by flicking the tube. Suspended cells were transferred using a 2 ml pipette into a clean 1.5 ml conical Eppendorf tube. Cells were pelleted for 30 seconds at 8,000 rpm in an Eppendorf micro centrifuge. The supernatant was discarded leaving approximately 100-200 ul behind. The cell pellet was loosened by gently flicking the tube and Thrombin stock (8 ul of 1 unit/ul water, Sigma #T-7009) was added. The cells were mixed briefly by gently flicking the tube then held on ice for 2-5 minutes. Fibrinogen stock (5 ul of at 10 mg/ml water, Sigma #F-3879) was added, and the tube was incubated for 2-5 minutes at room temperature. Clotted cells were pelleted by a brief centrifuge for 20 seconds at 10K. […]

[3] = VE-821 with Top1 inhibitor (CPT or LMP-400)

CC[C@@]1(O)C(=O)OCc2c1cc1n(c2=O)Cc2cc3ccccc3nc2-1 [CPT]
phosphorylation of H2AX (γH2AX) (γH2AX): quickly induced the rapid phosphorylation | phosphorylation of ATR (threonine 1989) (pT1989-ATR): delayed and best detectable after drug removal | phosphorylation of Chk2 (threonine 68) (pT68-Chk2): quickly induced the rapid phosphorylation | phosphorylation of Chk1 (serine 345) (pS345-Chk1): quickly induced the rapid phosphorylation

COc1cc2c3c(n(CCCN4CCOCC4)c(=O)c2cc1OC)-c1cc2c(cc1C3=O)OCO2 [LMP-400]
phosphorylation of H2AX (γH2AX) (γH2AX): quickly induced the rapid phosphorylation | effects on checkpoint phosphorylation relative to CPT (pT1989-ATR): more pronounced effects than CPT | phosphorylation of ATR (threonine 1989) (pT1989-ATR): delayed and best detectable after drug removal | phosphorylation of Chk2 (threonine 68) (pT68-Chk2): quickly induced the rapid phosphorylation | phosphorylation of Chk1 (serine 345) (pS345-Chk1): quickly induced the rapid phosphorylation

CS(=O)(=O)c1ccc(-c2cnc(N)c(C(=O)Nc3ccccc3)n2)cc1 [VE-821]
γH2AX induction over time (γH2AX; [3]): strongly induced | phosphorylation of ATR (pT1989-ATR; [3]): inhibited the phosphorylation | phospho-ATR (pT1989) level by Western blot compared to gemcitabine alone (phospho-ATR (pT1989); 1 uM VE-821 combined with 150 nM gemcitabine, 4 hours, HT-29 and LoVo): reduced | phospho-ATR (pT1989) level by Western blot compared to vehicle (phospho-ATR (pT1989); 1 uM alone, 4 hours, HT-29 and LoVo): did not affect | Chk2 phosphorylation (pT68-Chk2; [3]): without reducing Chk2 phosphorylation | phosphorylation of Chk1 (pS345-Chk1; [3]): inhibited the phosphorylation

N.N.[Cl][Pt][Cl] [cisplatin]
ATR foci in treated samples compared to vehicle [1]: increase in ATR foci

Nc1ccn([C@@H]2O[C@H](CO)[C@@H](O)C2(F)F)c(=O)n1 [gemcitabine]
signal intensity for pT1989 staining compared to untreated cells ([2]; FFPE HT29, DLD-1 cells): higher signal intensity | signal intensity for pT1989 staining compared to untreated cells ([2]; HT29 cells, 150 nM, 4 hrs or 24 hrs): higher signal intensity | phospho-ATR (pT1989) level by Western blot (phospho-ATR (pT1989); 150 nM, 4 hours, HT-29 and LoVo): increase | pT1989-ATR level by Western blot (phospho-ATR (pT1989); 4 hours, parental DLD-1 cells): increase | phospho-ATR (pT1989) level by Western blot (phospho-ATR (pT1989); gemcitabine treatment, HT-29, LoVo and DLD-1 lysates): increase
